# From publication PMC6095690, “Coalescing beneficial host and deleterious antiparasitic actions as an antischistosomal strategy” (eLife, 2018)
# Read-outs that look alike come from different tables or passages of the source.
# Columns and labels:
# Sm.5HTRL [1] = target: T1, Sm.5HTRL (Schistosoma mansoni, UniProt A0A173FEI8); settings: for Sm.5HTRL antagonism (% of control 5-HT response): primary screen, compound 10 µM then 5-HT 1 µM, 384 well, single replicate
# [2] = tested on: parental HEK293 cell line expressing the GloSensor 22F cAMP sensor and lacking Sm.5HTRL; assay: counter-screen of agonist hits: basal cAMP luminescence in parental reporter line; assay type: cell-based
# Sm.5HTRL [3] = target: T1, Sm.5HTRL; assay: cell-based; settings: for fold induction at 10 µM: HEK293, read-out: Sm.5HTRL agonism (fold change luminescence)
# [4] = tested on: adult S. mansoni parasites; assay: adult worm movement assay ex vivo; parameters: species or system Schistosoma mansoni
# [5] = tested on: S. mansoni (mature infection in Swiss Webster mice); assay: hepatic shift assay in infected mice; settings: intraperitoneal, sacrificed three hours later; dose not given
# [6] = agonist hit counter screen, cells lacking Sm.5HTRL
# T1 sequence (A0A173FEI8 1-547): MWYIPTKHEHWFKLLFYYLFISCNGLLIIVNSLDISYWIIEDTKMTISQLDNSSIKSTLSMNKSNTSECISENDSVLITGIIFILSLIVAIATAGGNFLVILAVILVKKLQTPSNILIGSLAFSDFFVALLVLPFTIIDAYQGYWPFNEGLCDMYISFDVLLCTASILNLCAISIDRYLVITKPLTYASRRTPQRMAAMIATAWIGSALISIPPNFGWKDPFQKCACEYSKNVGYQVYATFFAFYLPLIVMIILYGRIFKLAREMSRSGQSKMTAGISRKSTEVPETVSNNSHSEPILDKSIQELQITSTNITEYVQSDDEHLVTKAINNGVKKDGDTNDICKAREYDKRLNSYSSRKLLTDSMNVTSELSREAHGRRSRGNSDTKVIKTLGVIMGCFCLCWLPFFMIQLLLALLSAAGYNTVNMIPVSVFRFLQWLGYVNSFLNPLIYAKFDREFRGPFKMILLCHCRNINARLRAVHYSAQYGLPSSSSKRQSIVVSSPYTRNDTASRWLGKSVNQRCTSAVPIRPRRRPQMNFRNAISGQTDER
smiles,measurement,setting,value
Cl.NCCc1c[nH]c2ccc(Br)cc12 [ST093597],(+) Sm.5HTRL fold change,Sm.5HTRL [1]; hek293 cells,15.2823 fold change
same,(-)Sm.5HTRL fold change,[2],1.1795 fold change
O=c1ccc2nc3ccc(O)cc3oc-2c1 [compound 12097],Sm.5HTRL antagonism (% of control 5-HT response),Sm.5HTRL [1],0.7238 % of control 5-HT response
same,fold induction at 10 µM,Sm.5HTRL [3],0.635
"CC(C)C[C@H]1C(=O)N2CCC[C@H]2[C@]2(O)O[C@](NC(=O)[C@@H]3C=C4c5cccc6[nH]c(Br)c(c56)C[C@H]4N(C)C3)(C(C)C)C(=O)N12 [bromocriptine, Bromocriptine]",IC50,"[4]; Schistosoma mansoni, read-out: IC50 for inhibition of 5-HT evoked movement, 5-HT 200 µM, ex vivo, ± 95% confidence interval",331 ± 271 nM
same,5-HT (200 µM) stimulation of worm movement after preincubation with antagonist,"[4]; preincubation 1 µM, Figure 4B",5-HT stimulation was not observed
same,type of activity at schistosome 5-HTRs,Sm.5HTRL [1],antagonists
same,IC50,Sm.5HTRL [3],1600 ± 400 nM
same,percentage of worms in the liver,[5],2.0 ± 2.8%
COc1ccc(C2CC(=O)c3c(O)cc(OC4OC(CO)C(O)C(O)C4OC4OC(C)C(O)C(O)C4O)cc3O2)cc1O (stereo not shown) [compound 31048],Sm.5HTRL antagonism (% of control 5-HT response),Sm.5HTRL [1],1.138 % of control 5-HT response
same,fold induction at 10 µM,Sm.5HTRL [3],1.32
CNCC(O)c1ccc(O)cc1 (stereo not shown) [ST095769],(+) Sm.5HTRL fold change,Sm.5HTRL [1]; agonist hit validation,11.737 fold change
same,(-)Sm.5HTRL fold change,[2]; [6],2.535 fold change
CC1=CC(=O)c2c(O)cccc2C1=O [ST069355],(+) Sm.5HTR 5-HT response (% of DMSO),Sm.5HTRL [1],0.03935 % of DMSO
CC(C)NCC(O)c1ccc(O)c(O)c1 (stereo not shown) [ST077771],(+) Sm.5HTRL fold change,Sm.5HTRL [1]; agonist hit validation,12.8429 fold change
same,(-)Sm.5HTRL fold change,[2]; [6],15.0437 fold change
"CCN(CC)C(=O)N[C@H]1C[C@@H]2c3cccc4[nH]cc(c34)C[C@H]2N(C)C1 [terguride, Terguride, reference compound]",type of activity at schistosome 5-HTRs,Sm.5HTRL [1],antagonists
same,IC50,Sm.5HTRL [3],400 ± 50 nM
Nc1nc(Cl)nc2c1ncn2C1OC(CO)C(O)C1O (stereo not shown) [ST088476],(+) Sm.5HTRL fold change,Sm.5HTRL [1]; agonist hit validation,23.2211 fold change
same,(-)Sm.5HTRL fold change,[2]; [6],3.8 fold change
CNC[C@@H](O)c1ccc(O)c(O)c1 [compound 62786],(+) Sm.5HTRL fold change,Sm.5HTRL [1]; agonist hit validation,230.23 fold change
same,(-)Sm.5HTRL fold change,[2]; [6],88.8519 fold change
Br.Oc1ccc(CC2NCCc3cc(O)c(O)cc32)cc1O (stereo not shown) [ST056944],(+) Sm.5HTRL fold change,Sm.5HTRL [1]; hek293 cells,28.3016 fold change
same,(-)Sm.5HTRL fold change,[2],56.3 fold change
C=C[C@@]1(C)CC(=O)[C@@]2(O)[C@](C)(O1)[C@@H](OC(C)=O)[C@@H](O)C1C(C)(C)CC[C@H](O)[C@@]12C (stereo partly shown) [ST095786],(+) Sm.5HTRL fold change,Sm.5HTRL [1]; agonist hit validation,95.4625 fold change
same,(-)Sm.5HTRL fold change,[2]; [6],121.8 fold change
COC(=O)C1=COC(C)C2CN3CCc4c([nH]c5cc(OC)c(OC)cc45)C3CC12.O=C(O)CC(O)(CC(=O)O)C(=O)O (stereo not shown) [compound 72715],(+) Sm.5HTRL fold change,Sm.5HTRL [1]; agonist hit validation,54.6116 fold change
same,(-)Sm.5HTRL fold change,[2]; [6],0.9445 fold change
C[C@@H](CO)NC(=O)[C@@H]1C=C2c3cccc4[nH]cc(c34)C[C@H]2N(C)C1 [ST057158],(+) Sm.5HTRL fold change,Sm.5HTRL [1],15.5169 fold change
same,(-)Sm.5HTRL fold change,[2]; [6],1.1 fold change
CNC[C@H](O)c1ccc(O)c(O)c1 [ST069368],(+) Sm.5HTRL fold change,Sm.5HTRL [1]; agonist hit validation,60.6229 fold change
same,(-)Sm.5HTRL fold change,[2]; [6],94.1 fold change
"CC(C)C[C@H]1C(=O)N2CCC[C@H]2[C@]2(O)O[C@](NC(=O)[C@@H]3C=C4c5cccc6[nH]cc(c56)C[C@H]4N(C)C3)(C(C)C)C(=O)N12 [α-ergocryptine, reference compound]",type of activity at schistosome 5-HTRs,Sm.5HTRL [1],inactive
"CN1C[C@H](C(=O)N[C@]2(C)O[C@@]3(O)[C@@H]4CCCN4C(=O)[C@H](Cc4ccccc4)N3C2=O)C[C@@H]2c3cccc4[nH]cc(c34)C[C@H]21 [dihydroergotamine, Dihydroergotamine, reference compound]",type of activity at schistosome 5-HTRs,Sm.5HTRL [1],full agonists
